Data reported in patent publication US7304093B2, “Ketone compounds and compositions for cholesterol management and related uses” (Esperion Therapeutics, Inc., priority 2000, dated 2007).
Read-outs that look alike come from different tables or passages of the source. Marks after values point to notes of the source that are not given here.

Tested on: female obese Zucker rats
Test: Serum lipid and glycemic control variables in chow-fed obese female Zucker rats, daily oral gavage for two weeks
Format: in vivo, rat
Details: for change in vivo at 100 mg/kg: Rattus norvegicus, Table 9; for Glucose / HDL-C / NEFA / Non-HDL-C / TG / Insulin: serum, mean ± SEM; for Insulin: Table 12
Outline: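 Female obese Zucker fa rats, 10–12 wk, 400–500 g, chow-fed, dosed daily by oral gavage for 14 days in CMC/Tween 20 or ethanol/PEG-200 vehicle. After a 6-h fast, serum was sampled pre-dose, day 7 and day 14. Triglycerides, total cholesterol, NEFA and β-hydroxybutyrate were measured, plus lipoprotein cholesterol by gel-filtration profiling.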

CC(C)(CCCCCC(=O)CCCCCC(C)(C)C(=O)O)C(=O)O [Compound 210g, 2,2,14,14-Tetramethyl-8-oxopentadecanedioic acid]
NEFA, percent increase (+) or decrease (−) of the pretreatment control value (3 mg/kg daily oral, 1 wk): (−15) percent
Glucose, percent increase (+) or decrease (−) of the pretreatment control value (3 mg/kg daily oral, 2 wk): (+108) percent
NEFA, percent increase (+) or decrease (−) of the pretreatment control value (3 mg/kg daily oral, 2 wk): (−23) percent
HDL-C, percent increase (+) or decrease (−) of the pretreatment control value (10 mg/kg daily oral, 1 wk): (+158) percent
NEFA, percent increase (+) or decrease (−) of the pretreatment control value (10 mg/kg daily oral, 1 wk): (−17) percent
TG, percent increase (+) or decrease (−) of the pretreatment control value (10 mg/kg daily oral, 1 wk): (−36) percent
HDL-C, percent increase (+) or decrease (−) of the pretreatment control value (10 mg/kg daily oral, 2 wk): (+160) percent
NEFA, percent increase (+) or decrease (−) of the pretreatment control value (10 mg/kg daily oral, 2 wk): (−21) percent
Non-HDL-C, percent increase (+) or decrease (−) of the pretreatment control value (10 mg/kg daily oral, 2 wk): (+155) percent
HDL-C, percent increase (+) or decrease (−) of the pretreatment control value (30 mg/kg daily oral, 1 wk): (+256) percent
Insulin, percent increase (+) or decrease (−) of the pretreatment control value (30 mg/kg daily oral, 1 wk): (−35) percent
NEFA, percent increase (+) or decrease (−) of the pretreatment control value (30 mg/kg daily oral, 1 wk): (−32) percent
Non-HDL-C, percent increase (+) or decrease (−) of the pretreatment control value (30 mg/kg daily oral, 1 wk): (−48) percent
TG, percent increase (+) or decrease (−) of the pretreatment control value (30 mg/kg daily oral, 1 wk): (−78) percent
HDL-C, percent increase (+) or decrease (−) of the pretreatment control value (30 mg/kg daily oral, 2 wk): (+335) percent
Insulin, percent increase (+) or decrease (−) of the pretreatment control value (30 mg/kg daily oral, 2 wk): (−21) percent
NEFA, percent increase (+) or decrease (−) of the pretreatment control value (30 mg/kg daily oral, 2 wk): (−49) percent
TG, percent increase (+) or decrease (−) of the pretreatment control value (30 mg/kg daily oral, 2 wk): (−52) percent
Glucose, percent increase (+) or decrease (−) of the pretreatment control value (100 mg/kg daily oral, 1 wk): (−21) percent
HDL-C, percent increase (+) or decrease (−) of the pretreatment control value (100 mg/kg daily oral, 1 wk): (+151) percent
Insulin, percent increase (+) or decrease (−) of the pretreatment control value (100 mg/kg daily oral, 1 wk): (−46) percent
NEFA, percent increase (+) or decrease (−) of the pretreatment control value (100 mg/kg daily oral, 1 wk): (−30) percent
Non-HDL-C, percent increase (+) or decrease (−) of the pretreatment control value (100 mg/kg daily oral, 1 wk): (−92) percent
TG, percent increase (+) or decrease (−) of the pretreatment control value (100 mg/kg daily oral, 1 wk): (−93) percent
Glucose, percent increase (+) or decrease (−) of the pretreatment control value (100 mg/kg daily oral, 2 wk): (−10) percent
HDL-C, percent increase (+) or decrease (−) of the pretreatment control value (100 mg/kg daily oral, 2 wk): (+213) percent
Insulin, percent increase (+) or decrease (−) of the pretreatment control value (100 mg/kg daily oral, 2 wk): (−50) percent
NEFA, percent increase (+) or decrease (−) of the pretreatment control value (100 mg/kg daily oral, 2 wk): (−52) percent
Non-HDL-C, percent increase (+) or decrease (−) of the pretreatment control value (100 mg/kg daily oral, 2 wk): (−88) percent
TG, percent increase (+) or decrease (−) of the pretreatment control value (100 mg/kg daily oral, 2 wk): (−92) percent
change in vivo at 100 mg/kg (168 h, 100 mg/kg daily oral, 1 wk, read-out: HDL-Cholesterol, Percent Change from Pre-Treatment): 72%
change in vivo at 100 mg/kg (168 h, 100 mg/kg daily oral, 1 wk, read-out: NonHDL-Cholesterol, Percent Change from Pre-Treatment): -98%
change in vivo at 100 mg/kg (168 h, 100 mg/kg daily oral, 1 wk, read-out: TG, Percent Change from Pre-Treatment): -93%
change in vivo at 100 mg/kg (336 h, 100 mg/kg daily oral, 2 wk, read-out: HDL-Cholesterol, Percent Change from Pre-Treatment): 168%
change in vivo at 100 mg/kg (336 h, 100 mg/kg daily oral, 2 wk, read-out: NonHDL-Cholesterol, Percent Change from Pre-Treatment): -99%
change in vivo at 100 mg/kg (336 h, 100 mg/kg daily oral, 2 wk, read-out: TG, Percent Change from Pre-Treatment): -94%
Glucose (3 mg/kg daily oral, 1 wk): 117 ± 4 mg/dL
HDL-C (3 mg/kg daily oral, 1 wk): 75 ± 6 mg/dL
NEFA (3 mg/kg daily oral, 1 wk): 1.1 ± 0.07
Non-HDL-C (3 mg/kg daily oral, 1 wk): 23 ± 2 mg/dL
TG (3 mg/kg daily oral, 1 wk): 995 ± 50^a mg/dl
Insulin (3 mg/kg daily oral, 1 wk): 10.0 ± 1.0 ng/mL
Glucose (3 mg/kg daily oral, 2 wk): 124 ± 4^a mg/dl
HDL-C (3 mg/kg daily oral, 2 wk): 77 ± 8 mg/dL
NEFA (3 mg/kg daily oral, 2 wk): 1.0 ± 0.10
Non-HDL-C (3 mg/kg daily oral, 2 wk): 25 ± 2 mg/dL
TG (3 mg/kg daily oral, 2 wk): 833 ± 57 mg/dL
Insulin (3 mg/kg daily oral, 2 wk): 7.3 ± 0.5 ng/mL
Glucose (10 mg/kg daily oral, 1 wk): 122 ± 3 mg/dL
HDL-C (10 mg/kg daily oral, 1 wk): 136 ± 11^a mg/dl
NEFA (10 mg/kg daily oral, 1 wk): 1.0 ± 0.07
Non-HDL-C (10 mg/kg daily oral, 1 wk): 22 ± 2 mg/dL
TG (10 mg/kg daily oral, 1 wk): 553 ± 35^a mg/dl
Insulin (10 mg/kg daily oral, 1 wk): 10.5 ± 1.1 ng/mL
Glucose (10 mg/kg daily oral, 2 wk): 125 ± 4 mg/dL
HDL-C (10 mg/kg daily oral, 2 wk): 138 ± 8^a mg/dl
NEFA (10 mg/kg daily oral, 2 wk): 0.95 ± 0.08
Non-HDL-C (10 mg/kg daily oral, 2 wk): 34 ± 3^a mg/dl
TG (10 mg/kg daily oral, 2 wk): 865 ± 69 mg/dL
Insulin (10 mg/kg daily oral, 2 wk): 9.1 ± 0.7 ng/mL
Glucose (30 mg/kg daily oral, 1 wk): 108 ± 4 mg/dL
HDL-C (30 mg/kg daily oral, 1 wk): 159 ± 12^a mg/dl
NEFA (30 mg/kg daily oral, 1 wk): 0.88 ± 0.06
Non-HDL-C (30 mg/kg daily oral, 1 wk): 14 ± 2^a mg/dl
TG (30 mg/kg daily oral, 1 wk): 213 ± 19^a mg/dl
Insulin (30 mg/kg daily oral, 1 wk): 6.4 ± 0.6^a ng/ml
Glucose (30 mg/kg daily oral, 2 wk): 130 ± 4 mg/dL
HDL-C (30 mg/kg daily oral, 2 wk): 208 ± 14^a mg/dl
NEFA (30 mg/kg daily oral, 2 wk): 0.66 ± 0.03
Non-HDL-C (30 mg/kg daily oral, 2 wk): 30 ± 2 mg/dL
TG (30 mg/kg daily oral, 2 wk): 475 ± 38^a mg/dl
Insulin (30 mg/kg daily oral, 2 wk): 7.7 ± 0.9^a ng/ml
Glucose (100 mg/kg daily oral, 1 wk): 92 ± 4^a mg/dl
HDL-C (100 mg/kg daily oral, 1 wk): 100 ± 8^a mg/dl
NEFA (100 mg/kg daily oral, 1 wk): 0.98 ± 0.08
Non-HDL-C (100 mg/kg daily oral, 1 wk): 2 ± 1^a mg/dl
TG (100 mg/kg daily oral, 1 wk): 69 ± 5^a mg/dl
Insulin (100 mg/kg daily oral, 1 wk): 6.4 ± 1.3^a ng/ml
Glucose (100 mg/kg daily oral, 2 wk): 105 ± 3^a mg/dl
HDL-C (100 mg/kg daily oral, 2 wk): 141 ± 12^a mg/dl
NEFA (100 mg/kg daily oral, 2 wk): 0.66 ± 0.08
Non-HDL-C (100 mg/kg daily oral, 2 wk): 3 ± 1^a mg/dl
TG (100 mg/kg daily oral, 2 wk): 78 ± 10^a mg/dl
Insulin (100 mg/kg daily oral, 2 wk): 6.0 ± 0.8^a ng/ml
